Reference: ChEMBL document CHEMBL4385656, “Ciprofloxacin-1,2,3-triazole-isatin hybrids tethered via amide: Design, synthesis, and in vitro anti-mycobacterial activity evaluation” (Bioorg Med Chem Lett, 2019)
In brackets after ≈: the same amount, converted by molar mass.

Test system: Mycobacterium tuberculosis
Test: Anti-mycobacterial activity against isoniazid and rifampicin-resistant Mycobacterium tuberculosis
Type: functional

Row | Structure (SMILES) | MIC
1 | CO/N=C1/C(=O)N(Cc2cn(CC(=O)N3CCN(c4cc5c(cc4F)c(=O)c(C(=O)O)cn5C4CC4)CC3)nn2)c2ccccc21 | 8 µg/mL (≈ 12.7 µM)
2 | CCO/N=C1/C(=O)N(Cc2cn(CC(=O)N3CCN(c4cc5c(cc4F)c(=O)c(C(=O)O)cn5C4CC4)CC3)nn2)c2ccc(F)cc21 | 16 µg/mL (≈ 24.2 µM)
3 | CO/N=C1/C(=O)N(Cc2cn(CC(=O)N3CCN(c4cc5c(cc4F)c(=O)c(C(=O)O)cn5C4CC4)CC3)nn2)c2ccc(F)cc21 | 16 µg/mL (≈ 24.7 µM)
4 | Cc1ccc2c(c1)C(=O)C(=O)N2Cc1cn(CC(=O)N2CCN(c3cc4c(cc3F)c(=O)c(C(=O)O)cn4C3CC3)CC2)nn1 | 2 µg/mL (≈ 3.26 µM)
5 | CO/N=C1/C(=O)N(Cc2cn(CC(=O)N3CCN(c4cc5c(cc4F)c(=O)c(C(=O)O)cn5C4CC4)CC3)nn2)c2c(F)cccc21 | 32 µg/mL (≈ 49.5 µM)
6 | O=C1C(=O)N(Cc2cn(CC(=O)N3CCN(c4cc5c(cc4F)c(=O)c(C(=O)O)cn5C4CC4)CC3)nn2)c2ccc(F)cc21 | 1 µg/mL (≈ 1.62 µM)
7 | CCO/N=C1/C(=O)N(Cc2cn(CC(=O)N3CCN(c4cc5c(cc4F)c(=O)c(C(=O)O)cn5C4CC4)CC3)nn2)c2ccccc21 | 16 µg/mL (≈ 24.9 µM)
8 | O=C1C(=O)N(Cc2cn(CC(=O)N3CCN(c4cc5c(cc4F)c(=O)c(C(=O)O)cn5C4CC4)CC3)nn2)c2ccccc21 | 0.12 µg/mL (≈ 0.2 µM)
9 | CCO/N=C1/C(=O)N(Cc2cn(CC(=O)N3CCN(c4cc5c(cc4F)c(=O)c(C(=O)O)cn5C4CC4)CC3)nn2)c2c(F)cccc21 | 32 µg/mL (≈ 48.4 µM)
10 | CO[C@H]1/C=C/O[C@@]2(C)Oc3c(C)c(O)c4c(O)c(c(/C=N/N5CCN(C)CC5)c(O)c4c3C2=O)NC(=O)/C(C)=C\C=C\[C@H](C)[C@H](O)[C@@H](C)[C@@H](O)[C@@H](C)[C@H](OC(C)=O)[C@@H]1C [RIFAMPIN] | > 64 µg/mL
11 | O=C1C(=O)N(Cc2cn(CC(=O)N3CCN(c4cc5c(cc4F)c(=O)c(C(=O)O)cn5C4CC4)CC3)nn2)c2c(F)cccc21 | 2 µg/mL (≈ 3.24 µM)
12 | NNC(=O)c1ccncc1 [ISONIAZID] | > 64 µg/mL
13 | O=C(O)c1cn(C2CC2)c2cc(N3CCNCC3)c(F)cc2c1=O [CIPROFLOXACIN] | 2 µg/mL (≈ 6.04 µM)
14 | CO/N=C1/C(=O)N(Cc2cn(CC(=O)N3CCN(c4cc5c(cc4F)c(=O)c(C(=O)O)cn5C4CC4)CC3)nn2)c2ccc(C)cc21 | 8 µg/mL (≈ 12.4 µM)
15 | CCO/N=C1/C(=O)N(Cc2cn(CC(=O)N3CCN(c4cc5c(cc4F)c(=O)c(C(=O)O)cn5C4CC4)CC3)nn2)c2ccc(C)cc21 | 32 µg/mL (≈ 48.7 µM)

Test system: Mycobacterium tuberculosis
Test: Potency index, ratio of MIC for rifampicin to MIC for test compound for anti-mycobacterial activity against isoniazid and rifampicin-resistant Mycobacterium tuberculosis
Type: functional

Row | Structure (SMILES) | Ratio
16 | O=C1C(=O)N(Cc2cn(CC(=O)N3CCN(c4cc5c(cc4F)c(=O)c(C(=O)O)cn5C4CC4)CC3)nn2)c2ccccc21 | >=16

Test system: Mycobacterium tuberculosis
Test: Potency index, ratio of MIC for ciprofloxacin to MIC for test compound for anti-mycobacterial activity against isoniazid and rifampicin-resistant Mycobacterium tuberculosis
Type: functional

Row | Structure (SMILES) | Ratio
17 | O=C1C(=O)N(Cc2cn(CC(=O)N3CCN(c4cc5c(cc4F)c(=O)c(C(=O)O)cn5C4CC4)CC3)nn2)c2ccccc21 | >=16

Test system: Mycobacterium tuberculosis
Test: Potency index, ratio of MIC for isoniazid to MIC for test compound for anti-mycobacterial activity against isoniazid and rifampicin-resistant Mycobacterium tuberculosis
Type: functional

Row | Structure (SMILES) | Ratio
18 | O=C1C(=O)N(Cc2cn(CC(=O)N3CCN(c4cc5c(cc4F)c(=O)c(C(=O)O)cn5C4CC4)CC3)nn2)c2ccccc21 | >=16
